Measurements taken from ChEMBL document CHEMBL5316263, “Structure-Based Discovery of Selective Histone Deacetylase 8 Degraders with Potent Anticancer Activity” (J Med Chem, 2023).
The source made the active and inactive calls. The calls are words filed in the database; no cut-off is given here.

Legend:
[1] = tested on: A549; experiment: Induction of cell cycle arrest in human A549 cells assessed as accumulation of cells at G2/M phase at 5 uM measured after 48 hrs by propidium iodide staining based flow cytometry analysis; type: functional
[2] = tested on: A549; experiment: Effect on CYP1B1 gene in human A549 cells at 10 uM measured after 20 hrs by RNA sequencing analysis; type: functional, cell-based
[3] = tested on: A549; experiment: Induction of apoptosis in human A549 cells assessed as late apoptotic cells at 2.5 uM incubated for 72 hrs by annexin V-FITC staining based flow cytometry (reference value: 0.048%); type: functional
[4] = target: T1, Protein cereblon/Histone deacetylase 8 (Homo sapiens) (UniProt Q9BY41+Q96SW2); experiment: Protac activity at CRBN/HDAC8 in human A549 cells assessed as degradation of HDAC8 at 200 nM measured after 20 hrs by Western blot analysis relative to control; type: cell-based
T1 sequence (Q96SW2 whole entry, looked up): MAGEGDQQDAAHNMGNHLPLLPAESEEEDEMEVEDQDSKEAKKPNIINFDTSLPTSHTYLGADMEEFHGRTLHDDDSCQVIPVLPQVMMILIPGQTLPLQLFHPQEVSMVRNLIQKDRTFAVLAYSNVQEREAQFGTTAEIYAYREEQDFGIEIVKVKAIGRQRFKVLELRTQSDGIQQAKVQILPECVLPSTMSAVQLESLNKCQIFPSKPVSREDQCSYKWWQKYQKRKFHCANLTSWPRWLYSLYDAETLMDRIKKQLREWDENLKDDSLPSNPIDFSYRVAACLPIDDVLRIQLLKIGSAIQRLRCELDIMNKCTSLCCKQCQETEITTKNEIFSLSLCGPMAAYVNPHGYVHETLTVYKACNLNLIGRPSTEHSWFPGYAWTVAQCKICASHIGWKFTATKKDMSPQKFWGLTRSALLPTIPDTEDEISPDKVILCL
T1 sequence (Q9BY41 whole entry, looked up): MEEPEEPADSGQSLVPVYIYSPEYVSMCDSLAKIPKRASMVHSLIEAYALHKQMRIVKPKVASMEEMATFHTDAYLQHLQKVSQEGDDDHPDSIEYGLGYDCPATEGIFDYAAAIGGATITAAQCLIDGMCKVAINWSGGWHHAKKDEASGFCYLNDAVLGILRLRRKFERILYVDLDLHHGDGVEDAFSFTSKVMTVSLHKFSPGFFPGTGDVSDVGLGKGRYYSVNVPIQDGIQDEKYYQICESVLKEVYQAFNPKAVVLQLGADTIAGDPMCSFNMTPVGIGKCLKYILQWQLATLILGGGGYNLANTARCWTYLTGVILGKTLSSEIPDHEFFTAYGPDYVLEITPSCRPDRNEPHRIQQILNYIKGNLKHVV

[5] = tested on: A549; experiment: Inhibition of colony formation in human A549 cells assessed as reduction in cell proliferation at 2.5 to 10 uM measured after 7 to 10 days with media replenishment along with compound for every 3 days by crystal violet staining based analysis; type: functional; settings: dose 2.5-10 µM, time 7-10 day
[6] = tested on: HCT-116; experiment: Inhibition of colony formation in human HCT-116 cells assessed as reduction in cell proliferation at 2.5 to 10 uM measured after 7 to 10 days with media replenishment along with compound for every 3 days by crystal violet staining based analysis; type: functional; settings: dose 2.5-10 µM, time 7-10 day
[7] = tested on: A549; experiment: Inhibition of colony formation in SiRNA mediated HDAC8 knockdown human A549 cells assessed as decrease in cell proliferation at 2.5 to 10 uM measured after 7 to 10 days with media replenishment along with compound for every 3 days by crystal violet staining based analysis; type: functional; settings: dose 2.5-10 µM, time 7-10 day
[8] = tested on: A549; experiment: Effect on EREG gene in human A549 cells at 10 uM measured after 20 hrs by RNA sequencing analysis; type: functional, cell-based
[9] = tested on: A549; experiment: Effect on MAPK4 gene in human A549 cells at 10 uM measured after 20 hrs by RNA sequencing analysis; type: functional, cell-based
[10] = tested on: A549; experiment: Downregulation of LAMTOR4 in human A549 cells measured after 20 hrs by proteomic analysis; type: functional, cell-based
[11] = tested on: A549; experiment: Downregulation of RIMKLB in human A549 cells measured after 20 hrs by proteomic analysis; type: functional, cell-based
[12] = tested on: A549; experiment: Induction of apoptosis in human A549 cells incubated for 72 hrs by annexin V-FITC staining based flow cytometry; type: functional, cell-based; settings: dose 1.25-20 µM
[13] = tested on: A549; experiment: Induction of apoptosis in human A549 cells assessed as viable cells at 10 uM incubated for 72 hrs by annexin V-FITC staining based flow cytometry (reference value: 99.9%); type: functional; settings: read-out: Activity
[14] = tested on: A549; experiment: Induction of apoptosis in human A549 cells assessed as early apoptotic cells at 2.5 uM incubated for 72 hrs by annexin V-FITC staining based flow cytometry (reference value: 0.099%); type: functional
[15] = tested on: A549; experiment: Induction of apoptosis in human A549 cells assessed as necrotic cells at 1.25 uM incubated for 72 hrs by annexin V-FITC staining based flow cytometry relative to control; type: functional
[16] = tested on: A549; experiment: Induction of apoptosis in human A549 cells assessed as necrotic cells at 5 uM incubated for 72 hrs by annexin V-FITC staining based flow cytometry relative to control; type: functional
[17] = tested on: A549; experiment: Induction of apoptosis in human A549 cells assessed as upregulation of cleaved PARP level measured after 48 hrs by Western blot analysis; type: functional, cell-based; settings: dose 1.25-20 µM
[18] = tested on: A549; experiment: Induction of apoptosis in human A549 cells assessed as viable cells at 5 uM by annexin V-FITC staining based flow cytometry (reference value: 100%); type: functional; settings: read-out: Activity
[19] = tested on: A549; experiment: Induction of apoptosis in human A549 cells assessed as late apoptotic cells at 5 uM by annexin V-FITC staining based flow cytometry (reference value: 0.00%); type: functional
[20] = tested on: A549; experiment: Induction of apoptosis in human A549 cells assessed as viable cells at 5 uM incubated with compound followed by irradiation by annexin V-FITC staining based flow cytometry (reference value: 89.7%); type: functional; settings: A549, light or radiation study, read-out: Activity
[21] = tested on: A549; experiment: Induction of apoptosis in human A549 cells assessed as early apoptotic cells at 5 uM incubated with compound followed by irradiation by annexin V-FITC staining based flow cytometry (reference value: 6.26%); type: functional
[22] = target: Cereblon/Ikaros (Homo sapiens) (UniProt Q96SW2+Q13422); experiment: Protac activity at CRBN/IKZF1 in human A549 cells assessed as reduction in IKZF1 protein level at 10 uM by Western blot analysis; type: cell-based
[23] = target: T1, Protein cereblon/Histone deacetylase 8 (Homo sapiens); experiment: Protac activity at CRBN/HDAC8 in human HCT-116 cells assessed as reduction in HDAC8 protein level at 0.1 to 10 uM by Western blot analysis; type: cell-based; settings: dose 0.1-10 µM
[24] = tested on: A549; experiment: Inhibition of HDAC8 foci formation in human A549 cells measured after 20 hrs by DAPI staining based immunofluorescence assay; type: functional, cell-based; settings: dose 0.5-8 µM
[25] = tested on: HCT-116; experiment: Inhibition of HDAC8 foci formation in human HCT-116 cells measured after 20 hrs by DAPI staining based immunofluorescence assay; type: functional, cell-based; settings: dose 0.5-8 µM
[26] = tested on: HBEC3-KT; experiment: Antiproliferative activity against human HBEC3-KT cells at 0.1 to 10 uM measured after 72 hrs by CCK-8 method; type: functional, cell-based; settings: dose 0.1-10 µM
[27] = target: T1, Protein cereblon/Histone deacetylase 8 (Homo sapiens); experiment: Protac activity at CRBN/HDAC8 in human A549 cells at 10 uM measured preincubated for 20 hrs followed by drug washout and measured after 48 hrs by Western blot analysis; type: cell-based
[28] = target: T1, Protein cereblon/Histone deacetylase 8 (Homo sapiens); experiment: Protac activity at CRBN/HDAC8 in human MDA-MB-231 cells assessed as decrease in SMAD3 protein level at 0.1 to 10 uM by Western blot analysis; type: cell-based; settings: dose 0.1-10 µM
[29] = tested on: A549; experiment: Inhibition of DNA damage repair in human A549 cells assessed as reduction in number of gamma-H2AX foci at 5 uM incubated for 24 hrs followed by irradiation for 4 hrs by immunofluorescence staining based analysis; type: functional, cell-based
[30] = tested on: A549; experiment: Antitumor activity against human A549 cells xenografted in NOD/SCID mouse at 5 mg/kg, ip administered every 5 days measured at day 30; type: functional, organism-based; settings: time 30.0 day
[31] = tested on: A549; experiment: Antitumor activity against human A549 cells xenografted in NOD/SCID mouse at 5 mg/kg, ip administered every 5 days measured at day 30 followed by irradiation; type: functional, organism-based; settings: time 30.0 day
[32] = target: T1, Protein cereblon/Histone deacetylase 8 (Homo sapiens); experiment: In vivo protac activity at CRBN/HDAC8 in human A549 cells xenografted in NOD/SCID mouse assessed as degradation of HDAC8 at 5 mg/kg, ip administered every 5 days measured at day 30 by Western blot analysis; type: functional, organism-based; settings: time 30.0 day
[33] = tested on: A549; experiment: Antitumor activity against human A549 cells xenografted in NOD/SCID mouse assessed as decrease in HDAC8 expression at 5 mg/kg, ip administered every 5 days measured at day 30 by […] analysis; type: functional, organism-based; settings: time 30.0 day
[34] = tested on: A549; experiment: Antitumor activity against human A549 cells xenografted in NOD/SCID mouse assessed as increase in gamma-H2AX expression at 5 mg/kg, ip administered every 5 days measured at day 30 under irradiation condition by […] analysis; type: functional, organism-based; settings: time 30.0 day

## O=C1CCC(N2C(=O)c3cccc(NCc4cn(CCOCCOc5ccc(Cn6ccc7ccc(C(=O)NO)cc76)cc5)nn4)c3C2=O)C(=O)N1 (centres undefined)
[1]
  Activity: Active
[2]
  Activity: Active
[3]
  Activity: 15.3%
[4]
  Activity: 39.7%
[5]
  inhibition: Active
[6]
  inhibition: Active
[7]
  inhibition: Active
[8]
  Activity: Active
[9]
  Activity: Active
[10]
  Activity: Active
[11]
  Activity: Active
[12]
  Activity: Dose-Dependent Effect
[13]
  viability at 10 µM: 42.7%
[14]
  Activity: 22.5%
[15]
  Activity: 0.1%
[16]
  Activity: 2.49%
[17]
  Activity: Dose-Dependent Effect
[18]
  viability at 5 µM: 77%
[19]
  Activity: 6.19%
[20]
  viability at 5 µM: 66.3%
[21]
  Activity: 26.7%
[22]
  Activity: Active
[23]
  Activity: Active
[24]
  inhibition: Dose-Dependent Effect
[25]
  inhibition: Dose-Dependent Effect
[26]
  Activity: Active
[27]
  Activity: inactive
[28]
  Activity: Active
[29]
  inhibition: Active
[30]
  Activity: Active
[31]
  Activity: Active
[32]
  Activity: Active
[33]
  Activity: Active
[34]
  Activity: Active
